Results taken from US20250041179A1, “ANTIMICROBIAL COMBINATIONS” (SYMRISE AG, priority 2021, published 2025).

Key:
S. aureus [1] = assay: Preservative efficacy test (Ph. Eur., adjusted inoculum) in O/W anionic emulsion; format: cell-based, Staphylococcus aureus; settings: substance alone 0.5% w/w
Protocol: (§1) Material was tested in predesigned standardised cosmetic formulations either as oil-in-water anionic emulsion (Table 2), shampoo (Table 3), or wet wipe solution (Table 4). The antimicrobial actives were dissolved or mixed with the standardised cosmetic formulations, leading to the indicated test concentrations (in w/w %, cf. […] To determine synergistic indices, raw values for bacterial of fungal colony counts were used. [table] […] Steinberg D. C. (2000): Measuring Synergy. In Cosmetics & Toiletries, 115) was used: […]

E. coli [2] = assay: as above; format: cell-based, Escherichia coli; settings: substance alone 0.5% w/w
Protocol: as §1

P. aeruginosa = assay: Preservative efficacy test (Ph. Eur., adjusted inoculum) in shampoo formulation; format: cell-based, Pseudomonas aeruginosa; settings: substance alone 0.5% w/w
Protocol: (§2) Preservative efficacy tests were performed according to the European Pharmacopoeia with adjusted inoculation numbers (10^6-10^7 cells of suitable bacteria or fungi). Material was tested in predesigned standardised cosmetic formulations either as oil-in-water anionic emulsion (Table 2), shampoo (Table 3), or wet wipe solution (Table 4). The antimicrobial actives were dissolved or mixed with the standardised cosmetic formulations, leading to the indicated test concentrations (in w/w %, cf. Tables 5 to 12 below). To determine synergistic indices, raw values for bacterial of fungal colony counts were used.
(§3) [formula] • where • SI is the synergism index according to Kull • CA is the cell count for substance A (also “count A”) • CB is the cell count for substance B (also “count B”) • Cmixture is the cell count for the mixture of substance A and B (also “count mix”) • PA is the proportion of the substance A in the mixture in relation to the concentration tested alone • PB is the proportion of the substance B in the mixture in relation to the concentration tested alone

C. albicans = assay: as above; format: cell-based, Candida albicans; settings: substance alone 0.5% w/w
Protocol: as §2, §3

E. coli [3] = assay: as above; format: cell-based, Escherichia coli; settings: substance alone 0.5% w/w
Protocol: as §2
(§4) To calculate the synergism between the indicated antimicrobial actives (cf. preservative efficacy tests below), the Kull equation (Kull et al., Applied Microbiology 1961, 9 (6), pp. 538-541, DOI: 10.1128/am.9.6.538-541.1961.; Steinberg D. C. (2000): Measuring Synergy. In Cosmetics & Toiletries, 115) was used:
as §3

S. aureus [4] = assay: as above; format: cell-based, Staphylococcus aureus
Protocol: as §2, §4, §3

A. brasiliensis = assay: as above; format: cell-based, Aspergillus brasiliensis
Protocol: as §2, §3

CCCCCCCC(=O)OCCCO [3-Hydroxypropyl caprylate, 3-hydroxypropyl caprylate]
Absolute cell counts 2 days (S. aureus [1]): 2.10E+05
Relative cell counts 2 days (S. aureus [1]): 0.0382
Absolute cell counts 7 days (S. aureus [1]): 1.80E+02
Relative cell counts 7 days (S. aureus [1]): 0.0000
Absolute cell counts 14 days (S. aureus [1]): 1
Relative cell counts 14 days (S. aureus [1]): 0.0000
Absolute cell counts 28 days (S. aureus [1]): 1
Relative cell counts 28 days (S. aureus [1]): 0.0000
Absolute cell counts 2 days (E. coli [2]): 3.30E+06
Relative cell counts 2 days (E. coli [2]): 0.9706
Absolute cell counts 7 days (E. coli [2]): 2.60E+04
Relative cell counts 7 days (E. coli [2]): 0.0076
Absolute cell counts 14 days (E. coli [2]): 1
Relative cell counts 14 days (E. coli [2]): 0.0000
Absolute cell counts 28 days (E. coli [2]): 1
Relative cell counts 28 days (E. coli [2]): 0.0000
Absolute cell counts 2 days (P. aeruginosa): 9.30E+04
Relative cell counts 2 days (P. aeruginosa): 0.0211
Absolute cell counts 7 days (P. aeruginosa): 9.50E+02
Relative cell counts 7 days (P. aeruginosa): 0.0002
Absolute cell counts 14 days (P. aeruginosa): 1
Relative cell counts 14 days (P. aeruginosa): 0.0000
Absolute cell counts 28 days (P. aeruginosa): 1
Relative cell counts 28 days (P. aeruginosa): 0.0000
Absolute cell counts 2 days (C. albicans): 2.10E+03
Relative cell counts 2 days (C. albicans): 0.0010
Absolute cell counts 7 days (C. albicans): 1
Relative cell counts 7 days (C. albicans): 0.0000
Absolute cell counts 14 days (C. albicans): 1
Relative cell counts 14 days (C. albicans): 0.0000
Absolute cell counts 28 days (C. albicans): 1
Relative cell counts 28 days (C. albicans): 0.0000
Absolute cell counts 2 days (E. coli [3]): 1.80E+06
Relative cell counts 2 days (E. coli [3]): 0.5806
Absolute cell counts 7 days (E. coli [3]): 2.00E+06
Relative cell counts 7 days (E. coli [3]): 0.6452
Absolute cell counts 14 days (E. coli [3]): 1.70E+06
Relative cell counts 14 days (E. coli [3]): 0.5484
Absolute cell counts 28 days (E. coli [3]): 1.10E+06
Relative cell counts 28 days (E. coli [3]): 0.3548
Absolute cell counts 2 days (S. aureus [4]; substance alone 0.5% w/w): 1
Relative cell counts 2 days (S. aureus [4]; substance alone 0.5% w/w): 0.0000
Absolute cell counts 7 days (S. aureus [4]; substance alone 0.5% w/w): 1
Relative cell counts 7 days (S. aureus [4]; substance alone 0.5% w/w): 0.0000
Absolute cell counts 14 days (S. aureus [4]; substance alone 0.5% w/w): 1
Relative cell counts 14 days (S. aureus [4]; substance alone 0.5% w/w): 0.0000
Absolute cell counts 28 days (S. aureus [4]; substance alone 0.5% w/w): 1
Relative cell counts 28 days (S. aureus [4]; substance alone 0.5% w/w): 0.0000
Absolute cell counts 2 days (A. brasiliensis; substance alone 0.5% w/w): 3.00E+06
Relative cell counts 2 days (A. brasiliensis; substance alone 0.5% w/w): 0.9091
Absolute cell counts 7 days (A. brasiliensis; substance alone 0.5% w/w): 3.80E+06
Relative cell counts 7 days (A. brasiliensis; substance alone 0.5% w/w): 1.1515
Absolute cell counts 14 days (A. brasiliensis; substance alone 0.5% w/w): 4.50E+06
Relative cell counts 14 days (A. brasiliensis; substance alone 0.5% w/w): 1.3636
Absolute cell counts 28 days (A. brasiliensis; substance alone 0.5% w/w): 8.10E+05
Relative cell counts 28 days (A. brasiliensis; substance alone 0.5% w/w): 0.2455

CC(C)(C)C(=O)C(Oc1ccc(Cl)cc1)n1ccnc1 (stereo not shown) [Climbazole, climbazole, reference compound]
Absolute cell counts 2 days (A. brasiliensis; substance alone 0.5% w/w): 1.50E+05
Relative cell counts 2 days (A. brasiliensis; substance alone 0.5% w/w): 0.0366
Absolute cell counts 7 days (A. brasiliensis; substance alone 0.5% w/w): 6.20E+04
Relative cell counts 7 days (A. brasiliensis; substance alone 0.5% w/w): 0.0151
Absolute cell counts 14 days (A. brasiliensis; substance alone 0.5% w/w): 5.90E+04
Relative cell counts 14 days (A. brasiliensis; substance alone 0.5% w/w): 0.0144
Absolute cell counts 28 days (A. brasiliensis; substance alone 0.5% w/w): 4.60E+04
Relative cell counts 28 days (A. brasiliensis; substance alone 0.5% w/w): 0.0112

Cc1cc(CC(C)CC(C)(C)C)n(O)c(=O)c1.NCCO (stereo not shown) [Piroctone olamine, piroctone olamine, reference compound]
Absolute cell counts 2 days (S. aureus [1]): 2.50E+06
Relative cell counts 2 days (S. aureus [1]): 0.7813
Absolute cell counts 7 days (S. aureus [1]): 3.80E+04
Relative cell counts 7 days (S. aureus [1]): 0.0119
Absolute cell counts 14 days (S. aureus [1]): 1
Relative cell counts 14 days (S. aureus [1]): 0.0000
Absolute cell counts 28 days (S. aureus [1]): 1
Relative cell counts 28 days (S. aureus [1]): 0.0000
Absolute cell counts 2 days (E. coli [2]): 1
Relative cell counts 2 days (E. coli [2]): 0.0000
Absolute cell counts 7 days (E. coli [2]): 1
Relative cell counts 7 days (E. coli [2]): 0.0000
Absolute cell counts 14 days (E. coli [2]): 1
Relative cell counts 14 days (E. coli [2]): 0.0000
Absolute cell counts 28 days (E. coli [2]): 1
Relative cell counts 28 days (E. coli [2]): 0.0000
Absolute cell counts 2 days (P. aeruginosa): 1
Relative cell counts 2 days (P. aeruginosa): 0.0000
Absolute cell counts 7 days (P. aeruginosa): 1
Relative cell counts 7 days (P. aeruginosa): 0.0000
Absolute cell counts 14 days (P. aeruginosa): 1
Relative cell counts 14 days (P. aeruginosa): 0.0000
Absolute cell counts 28 days (P. aeruginosa): 1
Relative cell counts 28 days (P. aeruginosa): 0.0000
Absolute cell counts 2 days (C. albicans): 1
Relative cell counts 2 days (C. albicans): 0.0000
Absolute cell counts 7 days (C. albicans): 1
Relative cell counts 7 days (C. albicans): 0.0000
Absolute cell counts 14 days (C. albicans): 1
Relative cell counts 14 days (C. albicans): 0.0000
Absolute cell counts 28 days (C. albicans): 1
Relative cell counts 28 days (C. albicans): 0.0000

C/C=C/C=C/C(=O)[O-].[K+] [Potassium Sorbate, potassium sorbate]
Absolute cell counts 2 days (A. brasiliensis; substance alone 0.5% w/w): 1.40E+04
Relative cell counts 2 days (A. brasiliensis; substance alone 0.5% w/w): 0.0034
Absolute cell counts 7 days (A. brasiliensis; substance alone 0.5% w/w): 1
Relative cell counts 7 days (A. brasiliensis; substance alone 0.5% w/w): 0.0000
Absolute cell counts 14 days (A. brasiliensis; substance alone 0.5% w/w): 1
Relative cell counts 14 days (A. brasiliensis; substance alone 0.5% w/w): 0.0000
Absolute cell counts 28 days (A. brasiliensis; substance alone 0.5% w/w): 1
Relative cell counts 28 days (A. brasiliensis; substance alone 0.5% w/w): 0.0000

O=C(O)c1ccccc1O [Salicylic Acid, salicylic acid, reference compound]
Absolute cell counts 2 days (P. aeruginosa): 1
Relative cell counts 2 days (P. aeruginosa): 0.0000
Absolute cell counts 7 days (P. aeruginosa): 1
Relative cell counts 7 days (P. aeruginosa): 0.0000
Absolute cell counts 14 days (P. aeruginosa): 1
Relative cell counts 14 days (P. aeruginosa): 0.0000
Absolute cell counts 28 days (P. aeruginosa): 1
Relative cell counts 28 days (P. aeruginosa): 0.0000
Absolute cell counts 2 days (C. albicans): 7.30E+01
Relative cell counts 2 days (C. albicans): 0.0000
Absolute cell counts 7 days (C. albicans): 1
Relative cell counts 7 days (C. albicans): 0.0000
Absolute cell counts 14 days (C. albicans): 1
Relative cell counts 14 days (C. albicans): 0.0000
Absolute cell counts 28 days (C. albicans): 1
Relative cell counts 28 days (C. albicans): 0.0000
Absolute cell counts 2 days (E. coli [3]): 9.50E+03
Relative cell counts 2 days (E. coli [3]): 0.0021
Absolute cell counts 7 days (E. coli [3]): 7.20E+03
Relative cell counts 7 days (E. coli [3]): 0.0016
Absolute cell counts 14 days (E. coli [3]): 1
Relative cell counts 14 days (E. coli [3]): 0.0000
Absolute cell counts 28 days (E. coli [3]): 1
Relative cell counts 28 days (E. coli [3]): 0.0000

O=C([O-])c1ccccc1.[Na+] [Sodium Benzoate, sodium benzoate]
Absolute cell counts 2 days (P. aeruginosa): 9.60E+03
Relative cell counts 2 days (P. aeruginosa): 0.0026
Absolute cell counts 7 days (P. aeruginosa): 1
Relative cell counts 7 days (P. aeruginosa): 0.0000
Absolute cell counts 14 days (P. aeruginosa): 1
Relative cell counts 14 days (P. aeruginosa): 0.0000
Absolute cell counts 28 days (P. aeruginosa): 1
Relative cell counts 28 days (P. aeruginosa): 0.0000
Absolute cell counts 2 days (E. coli [3]): 8.70E+05
Relative cell counts 2 days (E. coli [3]): 0.1933
Absolute cell counts 7 days (E. coli [3]): 9.50E+05
Relative cell counts 7 days (E. coli [3]): 0.2111
Absolute cell counts 14 days (E. coli [3]): 4.20E+05
Relative cell counts 14 days (E. coli [3]): 0.0933
Absolute cell counts 28 days (E. coli [3]): 2.40E+04
Relative cell counts 28 days (E. coli [3]): 0.0053
Absolute cell counts 2 days (S. aureus [4]; substance alone 0.2% w/w): 2.20E+04
Relative cell counts 2 days (S. aureus [4]; substance alone 0.2% w/w): 0.0037
Absolute cell counts 7 days (S. aureus [4]; substance alone 0.2% w/w): 1
Relative cell counts 7 days (S. aureus [4]; substance alone 0.2% w/w): 0.0000
Absolute cell counts 14 days (S. aureus [4]; substance alone 0.2% w/w): 1
Relative cell counts 14 days (S. aureus [4]; substance alone 0.2% w/w): 0.0000
Absolute cell counts 28 days (S. aureus [4]; substance alone 0.2% w/w): 1
Relative cell counts 28 days (S. aureus [4]; substance alone 0.2% w/w): 0.0000
Absolute cell counts 2 days (A. brasiliensis; substance alone 0.2% w/w): 8.00E+04
Relative cell counts 2 days (A. brasiliensis; substance alone 0.2% w/w): 0.0800
Absolute cell counts 7 days (A. brasiliensis; substance alone 0.2% w/w): 1.10E+04
Relative cell counts 7 days (A. brasiliensis; substance alone 0.2% w/w): 0.0110
Absolute cell counts 14 days (A. brasiliensis; substance alone 0.2% w/w): 3.30E+02
Relative cell counts 14 days (A. brasiliensis; substance alone 0.2% w/w): 0.0003
Absolute cell counts 28 days (A. brasiliensis; substance alone 0.2% w/w): 3.20E+02
Relative cell counts 28 days (A. brasiliensis; substance alone 0.2% w/w): 0.0003
